Measurements as given in patent US20010044445A1, “AZOLE INHIBITORS OF CYTOKINE PRODUCTION” (priority 1999, published 2001).

How the values were obtained:
[1] = test system: Human peripheral blood mononuclear cells; experiment: Human Concanavalin-A Proliferation Assay (Con HU Assay); assay type: cell-based; details: concanavalin-A stimulated human PBMC; for inhibition at 1 µM / inhibition at 100 µM / IC50 / inhibition at 10 µM: Homo sapiens, PBMC; for inhibition at 1 µM / inhibition at 100 µM / inhibition at 10 µM: 72 h, read-out: % Inhibition of proliferation (at concentrations of 1,10, or 100 μm); for inhibition at 100 µM: concentration 100 μm (in parentheses in the cell); for IC50: tritiated thymidine; for inhibition at 10 µM: concentration 10 μm (in parentheses in the cell)
Outline: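 Proliferation read as tritiated thymidine uptake (0.5 μCi/well, 6 h pulse on day 3) in human PBMC cultured 3 days with 2.5 μg/ml (final) concanavalin-A. Cells, 50,000 per well in supplemented RPMI 1640 with 10% FBS, received compound 15 min before mitogen.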

[2] = concentration 1 μm (in parentheses in the cell), 3 days

Structure (SMILES): O=C(Nc1cccc(-n2nc(C(F)(F)F)cc2C(F)(F)F)c1)c1c(F)cccc1F [Example 224, N-[3-[3,5-bis(trifluoromethyl)-1H-pyrazol-1-yl]phenyl]-2,6-difluorobenzamide]
- melting point: 142 to 143 °C
- inhibition at 1 µM [1, 2]: 2%

Structure (SMILES): Cc1ccc(C(=O)Nc2ccc(-n3nc(C(F)(F)F)cc3C(F)(F)F)cc2)c(Cl)n1 [Example 151, N-[4-[3,5-bis(trifluoromethyl)-1H-pyrazol-1-yl]phenyl]-2-chloro-6-methyl-3-pyridinecarboxamide]
- melting point: 155 to 156 °C
- inhibition at 100 µM ([1]; 3 days): 99%
- IC50 [1]: 0.295 µM

Structure (SMILES): O=C(Nc1ccc(-n2nc(C(F)(F)F)cc2C(F)(F)F)cc1)c1cccc([N+](=O)[O-])c1 [Example 140, N-[4-[3,5-bis(trifluoromethyl)-1H-pyrazol-1-yl]phenyl]-3-nitrobenzamide]
- melting point: 203 to 204 °C
- inhibition at 100 µM ([1]; 3 days): 100%
- IC50 [1]: 0.298 µM

Structure (SMILES): O=C(Nc1ccc(-n2nc(C(F)(F)F)cc2C(F)(F)F)cc1)C1CC1c1ccccc1 (stereo not shown) [Example 68, N-[4-[3,5-bis(trifluoromethyl)-1H-pyrazol-1-yl]phenyl]-2-phenylcyclopropanecarboxamide]
- melting point: 176 to 178 °C
- inhibition at 100 µM ([1]; 3 days): 99%
- IC50 [1]: 2.44 µM

Structure (SMILES): Cc1nc(C)n(-c2ccc(NC(=O)c3c(C)noc3C)cc2)n1 [Example 189, 3,5-dimethyl-N-[4-(3,5-dimethyl-1H-1,2,4-triazol-1-yl)phenyl]-4-isoxazolecarboxamide]
- melting point: 170 to 171 °C
- inhibition at 1 µM [1, 2]: 24%

Structure (SMILES): COc1c(C(=O)Nc2ccc(-n3nc(C(F)(F)F)cc3C(F)(F)F)cc2)csc1Cl [Example 267, N-[4-[3,5-bis(trifluoromethyl)-1H-pyrazol-1-yl]phenyl]-5-chloro-4-methoxy-3-thiophenecarboxamide]
- melting point: 119 to 120 °C
- inhibition at 1 µM [1, 2]: 38%

Structure (SMILES): O=C(Nc1ccc(-n2nc(C(F)(F)F)cc2C(F)(F)F)cc1)c1ccc(F)c(Cl)c1 [Example 210, N-[4-[3,5-bis(trifluoromethyl)-1H-pyrazol-1-yl]phenyl]-3-chloro-4-fluorobenzamide]
- melting point: 138 to 139 °C
- inhibition at 10 µM ([1]; 3 days): 100%
- IC50 [1]: 0.239 µM

Structure (SMILES): O=C(Nc1ccc(-n2nc(C(F)(F)F)cc2C(F)(F)F)cc1)c1cc(Cl)ccc1Cl [Example 208, N-[4-[3,5-bis(trifluoromethyl)-1H-pyrazol-1-yl]phenyl]-2,5-dichlorobenzamide]
- melting point: 154 to 156 °C
- inhibition at 10 µM ([1]; 3 days): 99%
- IC50 [1]: 0.149 µM

Structure (SMILES): COC1CCCC(C(=O)Nc2ccc(-n3nc(C(F)(F)F)cc3C(F)(F)F)cc2)C1 (stereo not shown) [Example 11, N-[4-[3,5-bis(trifluoromethyl)-1H-pyrazol-1-yl]phenyl]-3-methoxycyclohexanecarboxamide]
- melting point: 145 to 147 °C
- inhibition at 10 µM ([1]; 3 days): 100%
- IC50 [1]: 0.376 µM

Structure (SMILES): COc1ccccc1C(=O)Nc1ccc(-n2nc(C(F)(F)F)cc2C(F)(F)F)cc1 [Example 143, N-[4-[3,5-bis(trifluoromethyl)-1H-pyrazol-1-yl]phenyl]-2-methoxybenzamide]
- melting point: 100 to 102 °C
- inhibition at 100 µM ([1]; 3 days): 100%
- IC50 [1]: 1.68 µM

Structure (SMILES): CSc1cc(C(F)(F)F)nn1-c1ccc(NC(=O)c2ccncc2F)cc1 [Example 320, 3-fluoro-N-(4-(5-(methylsulfanyl)-3-(trifluoromethyl)-1H-pyrazol-1-yl)phenyl)isonicotinamide]
- melting point: 142 to 143 °C
- IC50 [1]: 0.043 µM

Structure (SMILES): O=C(Nc1ccc(-n2nc(C(F)(F)F)cc2C(F)(F)F)cc1)c1cccnc1Cl [Example 150, N-[4-[3,5-bis(trifluoromethyl)-1H-pyrazol-1-yl]phenyl]-2-chloro-3-pyridinecarboxamide]
- melting point: 145 to 147 °C
- inhibition at 100 µM ([1]; 3 days): 100%
- IC50 [1]: 0.244 µM

Structure (SMILES): O=C(Nc1ccc(-n2nc(C(F)(F)F)cc2C(F)(F)F)cc1)c1cc(F)c(F)c(F)c1F [Example 235, N-[4-[3,5-bis(trifluoromethyl)-1H-pyrazol-1-yl]phenyl]-2,3,4,5-tetrafluorobenzamide]
- melting point: 138 to 140 °C
- inhibition at 10 µM ([1]; 3 days): 100%
- IC50 [1]: 0.107 µM

Structure (SMILES): Fc1ccc(NCc2ccc(-n3nc(C(F)(F)F)cc3C(F)(F)F)cc2)cc1 [Example 94, 4-[3,5-Bis(trifluoromethyl)-1H-pyrazol-1-yl]-N-(4-fluorophenyl)benzenemethanamine]
- melting point: 102 to 103 °C
- inhibition at 10 µM ([1]; 3 days): 3%

Structure (SMILES): Cc1noc(C)c1C(=O)Nc1ccc(-n2nc(C(F)(F)F)cc2C)cc1 [Example 283, 3,5-Dimethyl-N-[4-[5-methyl-3-(trifluoromethyl)-1H-pyrazol-1-yl]phenyl]-4-isoxazolecarboxamide]
- melting point: 180 to 181 °C
- inhibition at 100 µM ([1]; 3 days): 99%
- IC50 [1]: 1.04 µM

Structure (SMILES): Cc1ccc(C(=O)Nc2ccc(-n3nc(C(F)(F)F)cc3C(F)(F)F)cc2)s1 [Example 44, N-[4-[3,5-bis(trifluoromethyl)-1H-pyrazol-1-yl]phenyl]-5-methyl-2-thiophenecarboxamide]
- melting point: 200 to 202 °C
- inhibition at 1 µM [1, 2]: 29%

Structure (SMILES): Cc1nnsc1C(=O)Nc1ccc(-n2nc(-c3nccs3)cc2C#N)cc1 [Example 340, N-(4-(5-cyano-3-(1,3-thiazol-2-yl)-1H-pyrazol-1-yl)phenyl)-4-methyl-1,2,3-thiadiazole-5-carboxamide]
- melting point: 230 °C
- IC50 [1]: 0.251 µM

Structure (SMILES): Cc1noc(C)c1C(=O)Nc1ccc(-n2nc(C(F)(F)F)cc2C(F)(F)F)cc1C(F)(F)F [Example 278, N-[4-[3,5-bis(trifluoromethyl)-1H-pyrazol-1-yl]-2-(trifluoromethyl)phenyl]-3,5-dimethyl-4-isoxazolecarboxamide]
- melting point: 145 to 146 °C
- inhibition at 1 µM [1, 2]: 4%

Structure (SMILES): O=C(Nc1ccc(-n2nc(-c3ccoc3)cc2Cl)cc1)c1ccncc1F [Example 356, N-(4-(5-chloro-3-(3-furyl)-1H-pyrazol-1-yl)phenyl)-3-fluoroisonicotinamide]
- melting point: 165 to 166 °C
- IC50 [1]: 0.247 µM

Structure (SMILES): O=C(Nc1ccc(-n2nc(C(F)(F)F)cc2C(F)(F)F)nc1)c1ccccc1Cl [Example 260, N-[2-[3,5-bis(trifluoromethyl)-1H-pyrazol-1-yl]-5-pyridinyl]-2-chlorobenzamide]
- melting point: 156 to 159 °C
- inhibition at 10 µM ([1]; 3 days): 96%
- IC50 [1]: 0.369 µM

Structure (SMILES): CC(C(=O)Nc1ccc(-n2nc(C(F)(F)F)cc2C(F)(F)F)cc1)c1ccc(C(=O)c2cccs2)cc1 (stereo not drawn) [Example 178, N-[4-[3,5-bis(trifluoromethyl)-1H-pyrazol-1-yl]phenyl]-α-methyl-4-(2-thienylcarbonyl)benzeneacetamide]
- melting point: < 100 °C
- % Inhibition of proliferation (at concentrations of 1,10, or 100 μm) [1, 2]: 14(1) %

Structure (SMILES): O=C(Nc1ccc(-n2nc(C(F)(F)F)cc2C(F)(F)F)cc1)c1c(Cl)ccc([N+](=O)[O-])c1Cl [Example 216, N-[4-[3,5-bis(trifluoromethyl)-1H-pyrazol-1-yl]phenyl]-2,6-dichloro-3-nitrobenzamide]
- melting point: 160 to 161 °C
- inhibition at 10 µM ([1]; 3 days): 100%
- IC50 [1]: 0.267 µM

Structure (SMILES): O=C(Nc1ccc(-n2nc(C(F)(F)F)cc2C(F)(F)F)cc1)c1ccccc1O [Example 103, N-[4-[3,5-bis(trifluoromethyl)-1H-pyrazol-1-yl]phenyl]-2-hydroxybenzamide]
- melting point: 173 to 175 °C
- inhibition at 1 µM [1, 2]: 14%

Structure (SMILES): O=C(Nc1ccc(-n2nc(C(F)(F)F)cc2C(F)(F)F)cc1)c1ccccc1Oc1ccccc1 [Example 57, N-[4-[3,5-bis(trifluoromethyl)-1H-pyrazol-1-yl]phenyl]-2-phenoxybenzamide]
- melting point: 108 to 109 °C
- inhibition at 1 µM [1, 2]: 5%

Structure (SMILES): N#Cc1cc(C(F)(F)F)nn1-c1ccc(NC(=O)c2ccncc2Cl)cc1 [Example 351, 3-chloro-N-(4-(5-cyano-3-(trifluoromethyl)-1H-pyrazol-1-yl)phenyl)isonicotinamide]
- melting point: 221 to 222 °C
- IC50 [1]: 0.309 µM

Structure (SMILES): O=C(Nc1ccc(-n2nc(C(F)(F)F)cc2C(F)(F)F)cc1)c1ccc(F)c(F)c1 [Example 218, N-[4-[3,5-bis(trifluoromethyl)-1H-pyrazol-1-yl]phenyl]-3,4-difluorobenzamide]
- melting point: 183 to 185 °C
- inhibition at 10 µM ([1]; 3 days): 100%
- IC50 [1]: 0.136 µM

Structure (SMILES): O=C(Nc1cccc(-n2nc(C(F)(F)F)cc2C(F)(F)F)c1)c1cccc(Cl)c1Cl [Example 198, N-[3-[3,5-bis(trifluoromethyl)-1H-pyrazol-1-yl]phenyl]-2,3-dichlorobenzamide]
- melting point: 119 to 121 °C
- inhibition at 1 µM [1, 2]: 4%

Structure (SMILES): O=C(Nc1ccc(-n2nc(C(F)(F)F)cc2C(F)(F)F)cc1)C1CC=CCC1 (stereo not shown) [Example 29, N-[4-[3,5-bis(trifluoromethyl)-1H-pyrazol-1-yl]phenyl]-3-cyclohexene-1-carboxamide]
- melting point: 177 to 178 °C
- inhibition at 10 µM ([1]; 3 days): 100%
- IC50 [1]: 0.051 µM

Structure (SMILES): O=C(Nc1ccc(-n2nc(C(F)(F)F)cc2C(F)(F)F)cc1)c1ccncc1 [Example 116, N-[4-[3,5-bis(trifluoromethyl)-1H-pyrazol-1-yl]phenyl]-4-pyridinecarboxamide]
- melting point: 156 to 157 °C
- inhibition at 10 µM ([1]; 3 days): 100%
- IC50 [1]: 0.154 µM

Structure (SMILES): O=C(Nc1ccc(-n2nc(C(F)(F)F)cc2C(F)(F)F)cc1)c1ccccc1 [Example 92, N-[4-[3,5-bis(trifluoromethyl)-1H-pyrazol-1-yl]phenyl]benzamide]
- melting point: 177 to 178 °C
- inhibition at 100 µM ([1]; 3 days): 92%
- IC50 [1]: 0.673 µM
